Assay results: patent US4920106A, “Acetylenic cyclic carbonates” (Merck & Co., Inc., priority 1989, dated 1990)
In brackets after ≈: the same amount, converted by molar mass.

Columns and labels:
Candida albicans MY 1055 = experiment: Antifungal Assay (minimum inhibitory concentration, Candida albicans MY 1055); assay type: cell-based; conditions: Yeast Nitrogen Base/0.5% glucose; inoculum 3-5×10^-4 CFU/ml; 37° C., 18 hours; lowest concentration that inhibits visible growth
Experimental: Antifungal activity was determined against Candida albicans MY 1055, a yeast strain maintained by Merck and Co., Rahway, New Jersey. Minimum inhibitory concentrations were determined using a starting inoculum of 3-5×10^-4 CFU/ml. The medium was Yeast Nitrogen Base/0.5% glucose. Test compounds were dissolved in a minimum amount of 50% aqueous ethanol and diluted to final concentrations with yeast medium. Samples were incubated at 37° C. for 18 hours. The minimum inhibitory concentration (MIC), reported in μg/ml, is the lowest concentration of test compound that inhibits visible growth.

[1] = biological target: T1, Acetoacetyl-coenzyme A thiolase (Rattus norvegicus, UniProt Q5XI22); experiment: Acetoacetyl-Coenzyme A Thiolase Inhibition; assay type: biochemical, Sprague Dawley rats; conditions: Table II; text: IC50, concentration that inhibits 50% of thiolase activity; enzyme from livers of lovastatin-treated rats; pH 7.5, room temperature, 340 nm NADH oxidation; read-out: MIC
T1 construct: prepared from the livers of Sprague Dawley rats treated in the diet for one week with 0.075% lovastatin to induce the enzyme; from tissue; host or cells: liver of lovastatin-fed Sprague Dawley rats
T1 sequence (Q5XI22 whole entry): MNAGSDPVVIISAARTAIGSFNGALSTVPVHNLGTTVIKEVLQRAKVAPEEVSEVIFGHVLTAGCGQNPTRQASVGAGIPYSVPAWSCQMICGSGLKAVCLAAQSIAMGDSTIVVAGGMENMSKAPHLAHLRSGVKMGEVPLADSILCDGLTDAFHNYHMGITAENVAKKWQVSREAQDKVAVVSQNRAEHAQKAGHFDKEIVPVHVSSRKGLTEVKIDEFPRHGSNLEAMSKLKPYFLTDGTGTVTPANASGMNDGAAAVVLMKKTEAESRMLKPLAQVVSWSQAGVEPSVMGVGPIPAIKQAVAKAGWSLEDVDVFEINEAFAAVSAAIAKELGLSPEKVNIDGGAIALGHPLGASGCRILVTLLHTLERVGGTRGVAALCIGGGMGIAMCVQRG
Experimental: Acetoacetyl-coenzyme A thiolase was prepared from the livers of Sprague Dawley rats treated in the diet for one week with 0.075% lovastatin to induce the enzyme. Acetoacetyl-coenzyme A thiolase was purified through the DEAE-cellulose step essentially as described by Mehrabian et al., J. Biol. Chem., 261, 16249-16255 (1986), but modified slightly by carrying out the 30-50% ammonium sulfate precipitation of the enzyme and a dialysis before the DEAE-cellulose step. The 0.06M eluate described by Mehrabian et al. contained the acetoacetyl-coenzyme A thiolase. The isolate was concentrated by ammonium sulfate precipitation, dissolved in the buffer used for elution, and stored at -70° C.
Inhibition of acetoacetyl-coenzyme A thiolase was measured by coupling the formation of acetoacetyl-coenzyme A to its subsequent reduction by β-hydroxybutyryl-coenzyme A dehydrogenase to β-hydroxybutyryl-coenzyme A and monitoring the resultant oxidation of NADH with a spectrophotometer set at 340 nm. […] Reaction was measured at room temperature for a time period necessary to produce a measurable reaction rate. […]

cytosolic β-ketothiolase = conditions: background statement; cited from earlier work
certain fungal strains = conditions: background statement; cited from earlier work
[2] = system: certain bacterial strains; conditions: background statement; cited from earlier work
[3] = background statement; cited from earlier work

| Structure (SMILES) | MIC (Candida albicans MY 1055) | IC50 [1] | inhibitor of cytosolic β-ketothiolase (cytosolic β-ketothiolase) | active against certain fungal strains (certain fungal strains) | active against certain bacterial strains [2] | instability of the compound in vivo [3] |
| --- | --- | --- | --- | --- | --- | --- |
| CC#CC#CC#C[C@@H](OC)[C@@H]1OC(=O)O[C@H]1CCCCCCC(=O)OC [Ex. 13, 5-(1(R)-Methoxy-2,4,6-octatriynyl)-2-oxo-4(S),5(S)-1,3-dioxolane-4-heptanoic acid, methyl ester] | 5 µg/mL (≈ 13.9 µM) | 560 nM |  |  |  |  |
| C#CC#CC#CC(O)C1OC(=O)OC1CCCCCCC(=O)O (stereo not shown) [triyne carbonate A, 5-(1-hydroxy-2,4,6-heptatriynyl)-2-oxo-1,3-dioxolane-4-heptanoic acid] |  |  | potent inhibitor | active | active | relative instability |
| COC(=O)CCCCCC[C@@H]1OC(=O)O[C@H]1C(O)C#CC#CC#C[Si](C)(C)C (single isomer, unassigned) [Ex. 6] | 0.6 µg/mL (≈ 1.48 µM) |  |  |  |  |  |
